2 substances from patent US10588982B2, “Site-specific covalent chemical ligation to monoclonal and polyclonal immunoglobulin” (The Regents of the University of California, priority 2015, dated 2020) can be followed below.

One experiment concerns SKOV3. The experiment is described as follows: In vitro T cell killing assay by flow cytometry. The note with it: with activated T cells. It counts as cell-based. Here is the method: FIG. 30. Depicts results of an in vitro T cell killing assay monitored and quantified by flow cytometry.
In vitro cytotoxicity assays were performed to analyze the effect of the NMDS-LYX30 bi-functional immunoconjugate on T cell targeting of an α3β1 integrin expressing target cell. Target cells (SKOV3) were labeled with GFP. The labeled target cells were plated in 6-well plates at 30000 cells per well and allowed to adhere overnight at 37° C. in a humidified atmosphere of 5% CO2. PBMCs were isolated from healthy volunteer donor and activated with anti-CD3, anti-CD28 (1 ug/ml) for 72 hours prior to co-incubation with target cells. The activated PBMCs were co-cultured with target cells at E:T=10:1 ratio for 12 hours at 37° C. in a humidified atmosphere of 5% CO2 with or without 100 ng/ml immunoconjugates contained medium. At the end of the incubation, the cells were lifted by trypsin and collected from the plate. The cells were resuspended in equal volume of PBS containing 2% FBS, 1 mmol/L EDTA, Propidium iodine (PI) and Annexin V-APC for 15 minutes. The fluorescent intensity of GFP, PI and APC were recorded by a FACs machine. 10000 events of target cells were recorded by gating GFP positive channel. The percentage of live/dead cells was calculated by the different cell population containing different amount of annexin V or PI. […] The results are depicted in FIG. 30.
In general terms: A flow cytometer gives signals particle by particle.

In a further experiment the test system is trastuzumab. The experiment is described as follows: Confirmation screen on TentaGel beads, crosslinked trastuzumab detected with anti-human IgG Cy3. The settings on record: DNFB reacted with methylamine or methylpypridine prior to staining.

Regarding “nivolumab: anti-PD-1 checkpoint inhibitor antibody”, in the experiment on SKOV3, the target cell killing entry is reported as “increased target cell killing”. Regarding “indole-butyrate-Lys(DNFB)-Asp-Ser linker [DS affinity element]”, the “decrease in fluorescent intensity” value in the experiment with trastuzumab is recorded as 50%.
